Measurements published in patent US12459974B2, “Bicyclic peptide ligands specific for Nectin-4” (priority 2018, dated 2025).
*1 amine or outer side, *2 acyl side, *3 side chain or, on linkers, in order; H or OH if unused. Where a SMILES comes first, the peptide text is derived from it. Bridges are numbered along the chain shown (N, C = ends). Roman numbers before positions name the chains, in order. [ ]: non-standard residue; d: D form. The star is where a group is joined. ξ: configuration not given here. TATA = O=C(CC[*:1])N1CN(C(=O)CC[*:2])CN(C(=O)CC[*:3])C1; Dolaproine = CO[C@@H]([C@@H]1CCCN1)[C@@H](C)C(=O)O; X1 = CC[C@H](C)C(C(CC(=O)[*:2])OC)N(C)[*:1]; 1Nal = N[C@@H](Cc1cccc2ccccc12)C(=O)O; X3 = O=C(CCCC(=O)[*:2])NCCC(=O)[*:1]; PABC = O=C(OCc1ccc(N[*:1])cc1)[*:2]; Hyp = O=C(O)[C@@H]1C[C@@H](O)CN1; hArg = N=C(N)NCCCC[C@H](N)C(=O)O; Cit = NC(=O)NCCC[C@H](N)C(=O)O; X2 = CC(N*)[C@@H](O)c1ccccc1; ξNMeV = CNC(C(=O)O)C(C)C; ξV = CC(C)C(N)C(=O)O; Sar = CNCC(=O)O

Tests used:
[1] = system: HCT116 xenograft; assay: Example 9.2: in vivo efficacy in HCT116 xenograft in Balb/c nude mice; design: species or system Mus Musculus; conditions: for TGI / Tumor volume (TV) / Tumor volume / T/C: day 14; for Tumor volume trace over time / Tumor volume: mean ± SEM; for T/C: treated/control group average tumor volume
[2] = system: MDA-MB-468 xenograft; assay: Example 9.4: in vivo efficacy in MDA-MB-468 xenograft in Balb/c nude mice; conditions: for TGI / Tumor volume (TV) / T/C: day 21; for T/C: treated/control group average tumor volume; for Tumor volume trace over time (Day 23 to day 42): dosing suspended from day 21
Experimental: The major endpoint was to see if the tumor growth could be delayed or mice could be cured. Tumor volume was measured three times weekly in two dimensions using a caliper, and the volume was expressed in mm^3 using the formula: V=0.5 a×b^2 where a and b are the long and short diameters of the tumor, respectively. The tumor size was then used for calculations of T/C value. The T/C value (in percent) is an indication of antitumor effectiveness; T and C are the mean volumes of the treated and control groups, respectively, on a given day. TGI was calculated for each group using the formula: TGI (%)=[1−(Ti−T0)/(Vi−V0)]×100; Ti is the average tumor volume of a treatment group on a given day, T0 is the average tumor volume of the treatment group on the day of treatment start, Vi is the average tumor volume of the vehicle control group on the same day with Ti, and V0 is the average tumor volume of the vehicle group on the day of treatment start.
A one-way ANOVA was performed to compare tumor volume among groups, and when a significant F-statistics (a ratio of treatment variance to the error variance) was obtained, comparisons between groups were carried out with Games-Howell test. All data were analyzed using GraphPad Prism 5.0. P<0.05 was considered to be statistically significant.
• Species: Mus Musculus • Strain: Balb/c nude • Age: 6-8 weeks • Sex: female • Body weight: 18-22 g • Number of animals: 41 mice plus spare 3.1.2.
The tumor cells were maintained in Leibovitz's L-15 medium supplemented with 10% heat inactivated fetal bovine serum at 37° C. in an atmosphere of 5% CO2 in air. The tumor cells were routinely subcultured twice weekly. The cells growing in an exponential growth phase were harvested and counted for tumor inoculation.
41 animals were randomized when the average tumor volume reached 196 mm^3.

[3] = system: A549 xenograft; assay: Example 9.1: in vivo efficacy in A549 xenograft in Balb/c nude mice; design: species or system Mus Musculus; conditions: for TGI / Tumor volume (TV): day 14; for Tumor volume trace over time: 3 mpk, biw, iv

## CC[C@H](C)C(C(CC(=O)N1CCC[C@H]1[C@H](OC)[C@@H](C)C(=O)NC(C)[C@@H](O)c1ccccc1)OC)N(C)C(=O)[C@@H](NC(=O)C(C(C)C)N(C)C(=O)OCc1ccc(NC(=O)[C@H](CCCNC(N)=O)NC(=O)C(NC(=O)CCCC(=O)NCCC(=O)N(C)CC(=O)N(C)CC(=O)N(C)CC(=O)N(C)CC(=O)N(C)CC(=O)N(C)CC(=O)N(C)CC(=O)N(C)CC(=O)N(C)CC(=O)N(C)CC(=O)N[C@H]2CSCCC(=O)N3CN4CN(C3)C(=O)CCSC[C@H](NC(=O)[C@@H](CC(=O)O)NC(=O)[C@H](Cc3cccc5ccccc35)NC(=O)[C@@H]3CCCN3C2=O)C(=O)N[C@@H](CCSC)C(=O)N[C@@H](CCCCNC(=N)N)C(=O)N[C@@H](CC(=O)O)C(=O)N[C@@H](Cc2c[nH]c3ccccc23)C(=O)N[C@@H](CO)C(=O)N[C@@H]([C@@H](C)O)C(=O)N2CCC[C@H]2C(=O)N2C[C@H](O)C[C@H]2C(=O)N[C@@H](Cc2c[nH]c3ccccc23)C(=O)N[C@H](C(N)=O)CSCCC4=O)C(C)C)cc1)C(C)C (stereo partly drawn) [BCY8245, MMAE-PABC-Cit-Val-Glutaryl-BCY8234] (I: [Sar][Sar][Sar][Sar][Sar][Sar][Sar][Sar][Sar][Sar]CP[1Nal][dD]CM[hArg]DWSTP[Hyp]WC-NH2 / II: [ξV][Cit][PABC][ξNMeV]V[X1][Dolaproine]-X2; linker I:11-I:15-I:25 via TATA; linker I:N-II:N via X3)
[1]; 3 mg/kg biw
  TGI: 94.9%
  Tumor volume (TV): 197 mm^3
[1]; 3 mg/kg qw
  TGI: 57.1%
  Tumor volume (TV): 425 mm^3
[1]; 5 mg/kg qw
  TGI: 105.2%
  Tumor volume (TV): 134 mm^3
[1]; 3 mpk, biw, iv, day 0 after the start of treatment
  Tumor volume trace over time: 166 ± 18 mm^3
[1]; 3 mpk, biw, iv, day 2 after the start of treatment
  Tumor volume trace over time: 229 ± 40 mm^3
[1]; 3 mpk, biw, iv, day 4 after the start of treatment
  Tumor volume trace over time: 215 ± 42 mm^3
[1]; 3 mpk, biw, iv, day 7 after the start of treatment
  Tumor volume trace over time: 213 ± 49 mm^3
[1]; 3 mpk, biw, iv, day 9 after the start of treatment
  Tumor volume trace over time: 213 ± 48 mm^3
[1]; 3 mpk, biw, iv, day 12 after the start of treatment
  Tumor volume trace over time: 206 ± 55 mm^3
[1]; 3 mpk, biw, iv
  TGI: 94.9%
  Tumor volume: 197 ± 50 mm^3
  T/C: 25.6%
[1]; 3 mpk, biw, iv, day 14 after the start of treatment
  Tumor volume trace over time: 197 ± 50 mm^3
[1]; 3 mpk, qw, iv, day 0 after the start of treatment
  Tumor volume trace over time: 167 ± 11 mm^3
[1]; 3 mpk, qw, iv, day 2 after the start of treatment
  Tumor volume trace over time: 209 ± 13 mm^3
[1]; 3 mpk, qw, iv, day 4 after the start of treatment
  Tumor volume trace over time: 227 ± 17 mm^3
[1]; 3 mpk, qw, iv, day 7 after the start of treatment
  Tumor volume trace over time: 269 ± 33 mm^3
[1]; 3 mpk, qw, iv, day 9 after the start of treatment
  Tumor volume trace over time: 324 ± 39 mm^3
[1]; 3 mpk, qw, iv, day 12 after the start of treatment
  Tumor volume trace over time: 348 ± 27 mm^3
[1]; 3 mpk, qw, iv
  TGI: 57.1%
  Tumor volume: 425 ± 28 mm^3
  T/C: 55.2%
[1]; 3 mpk, qw, iv, day 14 after the start of treatment
  Tumor volume trace over time: 425 ± 28 mm^3
[1]; 5 mpk, qw, iv, day 0 after the start of treatment
  Tumor volume trace over time: 166 ± 35 mm^3
[1]; 5 mpk, qw, iv, day 2 after the start of treatment
  Tumor volume trace over time: 201 ± 42 mm^3
[1]; 5 mpk, qw, iv, day 4 after the start of treatment
  Tumor volume trace over time: 176 ± 15 mm^3
[1]; 5 mpk, qw, iv, day 7 after the start of treatment
  Tumor volume trace over time: 183 ± 17 mm^3
[1]; 5 mpk, qw, iv, day 9 after the start of treatment
  Tumor volume trace over time: 170 ± 16 mm^3
[1]; 5 mpk, qw, iv, day 12 after the start of treatment
  Tumor volume trace over time: 125 ± 18 mm^3
[1]; 5 mpk, qw, iv
  TGI: 105.2%
  Tumor volume: 134 ± 12 mm^3
  T/C: 17.4%
[1]; 5 mpk, qw, iv, day 14 after the start of treatment
  Tumor volume trace over time: 134 ± 12 mm^3
[1]; mouse, in vivo
  tumor response (in words): tumor growth is restrained by BCY8245 but the tumor does not undergo regression
[2]; 3 mg/kg biw
  TGI: 169.8%
  Tumor volume (TV): 22 mm^3
[2]; 3 mg/kg qw
  TGI: 144.2%
  Tumor volume (TV): 85 mm^3
[2]; 5 mg/kg qw
  TGI: 168.4%
  Tumor volume (TV): 29 mm^3
[2]; 3 mpk, biw, iv
  TGI: 169.8%
  T/C: 4.9%
[2]; 3 mpk, qw, iv
  TGI: 144.2%
  T/C: 18.9%
[2]; 5 mpk, qw, iv, day 23 after the start of treatment
  Tumor volume trace over time (Day 23 to day 42): 35 ± 5 mm^3
[2]; 5 mpk, qw, iv, day 25 after the start of treatment
  Tumor volume trace over time (Day 23 to day 42): 48 ± 5 mm^3
[2]; 5 mpk, qw, iv, day 28 after the start of treatment
  Tumor volume trace over time (Day 23 to day 42): 37 ± 7 mm^3
[2]; 5 mpk, qw, iv, day 32 after the start of treatment
  Tumor volume trace over time (Day 23 to day 42): 28 ± 6 mm^3
[2]; 5 mpk, qw, iv, day 35 after the start of treatment
  Tumor volume trace over time (Day 23 to day 42): 24 ± 4 mm^3
[2]; 5 mpk, qw, iv, day 39 after the start of treatment
  Tumor volume trace over time (Day 23 to day 42): 28 ± 6 mm^3
[2]; 5 mpk, qw, iv, day 42 after the start of treatment
  Tumor volume trace over time (Day 23 to day 42): 26 ± 6 mm^3
[2]; 5 mpk, qw, iv
  TGI: 168.4%
  T/C: 6.6%
[2]; mouse, in vivo
  tumor response (in words): causes regression of the tumor
[3]; 3 mg/kg biw
  TGI: 90.8%
  Tumor volume (TV): 194 mm^3
[3]; 3 mg/kg qw
  TGI: 51.4%
  Tumor volume (TV): 356 mm^3
[3]; 5 mg/kg qw
  TGI: 82.6%
  Tumor volume (TV): 228 mm^3
[3]; day 0 after the start of treatment
  Tumor volume trace over time: 157 ± 14
[3]; day 2 after the start of treatment
  Tumor volume trace over time: 183 ± 27
[3]; day 5 after the start of treatment
  Tumor volume trace over time: 158 ± 16
[3]; day 7 after the start of treatment
  Tumor volume trace over time: 184 ± 6
[3]; day 9 after the start of treatment
  Tumor volume trace over time: 182 ± 8
